US20240116922A1, “IMIDAZO[1,2-A]PYRIDINE DERIVATIVES AS IRAK4 INHIBITORS AND THEIR USE IN THE TREATMENT OF DISEASE” (BIOGEN MA INC., priority 2020, published 2024)
In brackets after ≈: the same amount, converted by molar mass. Counter-ions that a name gives are not always drawn.

Assays:
MDR1 = MDR1 (Homo sapiens (Human), UniProt P08183); assay: in vitro; settings: MDCK-MDR1
[1] = Kpuu assay (in vivo brain-to-plasma unbound partition); settings: brain (unbound) versus plasma (unbound); intravenous infusion 4 to 24 h; unbound brain/plasma ratio; read-out: Brain Kpu, u
IRAK4 = IRAK4 (Homo sapiens (Human), UniProt Q9NWZ3); assay: IRAK4 MSD biochemical assay (2-hour 1 mM ATP); settings: 0.1 nM IRAK4, 1 mM ATP, 2 hour at room temperature
[2] = Kinetic solubility assay (CLND), pH 6.8; assay type: physicochemical; settings: aqueous buffer, kinetic from dmso stock; potassium phosphate buffer pH 6.8, 2% DMSO, 24 hours at ambient temperature

Chain of IRAK4 (Q9NWZ3 whole entry): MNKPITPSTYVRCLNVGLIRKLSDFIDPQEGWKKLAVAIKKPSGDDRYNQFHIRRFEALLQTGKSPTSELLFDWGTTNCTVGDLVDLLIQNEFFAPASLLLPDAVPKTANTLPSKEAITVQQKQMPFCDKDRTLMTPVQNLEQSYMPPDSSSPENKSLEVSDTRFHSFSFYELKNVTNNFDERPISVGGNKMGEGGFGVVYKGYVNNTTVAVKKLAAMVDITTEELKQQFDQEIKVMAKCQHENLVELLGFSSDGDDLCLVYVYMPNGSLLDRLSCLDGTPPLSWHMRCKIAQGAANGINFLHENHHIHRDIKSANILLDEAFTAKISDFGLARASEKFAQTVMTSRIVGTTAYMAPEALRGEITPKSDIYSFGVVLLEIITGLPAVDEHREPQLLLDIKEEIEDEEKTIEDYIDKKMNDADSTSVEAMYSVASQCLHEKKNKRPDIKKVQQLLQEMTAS
Chain of MDR1 (P08183 whole entry, the tested form may be a part): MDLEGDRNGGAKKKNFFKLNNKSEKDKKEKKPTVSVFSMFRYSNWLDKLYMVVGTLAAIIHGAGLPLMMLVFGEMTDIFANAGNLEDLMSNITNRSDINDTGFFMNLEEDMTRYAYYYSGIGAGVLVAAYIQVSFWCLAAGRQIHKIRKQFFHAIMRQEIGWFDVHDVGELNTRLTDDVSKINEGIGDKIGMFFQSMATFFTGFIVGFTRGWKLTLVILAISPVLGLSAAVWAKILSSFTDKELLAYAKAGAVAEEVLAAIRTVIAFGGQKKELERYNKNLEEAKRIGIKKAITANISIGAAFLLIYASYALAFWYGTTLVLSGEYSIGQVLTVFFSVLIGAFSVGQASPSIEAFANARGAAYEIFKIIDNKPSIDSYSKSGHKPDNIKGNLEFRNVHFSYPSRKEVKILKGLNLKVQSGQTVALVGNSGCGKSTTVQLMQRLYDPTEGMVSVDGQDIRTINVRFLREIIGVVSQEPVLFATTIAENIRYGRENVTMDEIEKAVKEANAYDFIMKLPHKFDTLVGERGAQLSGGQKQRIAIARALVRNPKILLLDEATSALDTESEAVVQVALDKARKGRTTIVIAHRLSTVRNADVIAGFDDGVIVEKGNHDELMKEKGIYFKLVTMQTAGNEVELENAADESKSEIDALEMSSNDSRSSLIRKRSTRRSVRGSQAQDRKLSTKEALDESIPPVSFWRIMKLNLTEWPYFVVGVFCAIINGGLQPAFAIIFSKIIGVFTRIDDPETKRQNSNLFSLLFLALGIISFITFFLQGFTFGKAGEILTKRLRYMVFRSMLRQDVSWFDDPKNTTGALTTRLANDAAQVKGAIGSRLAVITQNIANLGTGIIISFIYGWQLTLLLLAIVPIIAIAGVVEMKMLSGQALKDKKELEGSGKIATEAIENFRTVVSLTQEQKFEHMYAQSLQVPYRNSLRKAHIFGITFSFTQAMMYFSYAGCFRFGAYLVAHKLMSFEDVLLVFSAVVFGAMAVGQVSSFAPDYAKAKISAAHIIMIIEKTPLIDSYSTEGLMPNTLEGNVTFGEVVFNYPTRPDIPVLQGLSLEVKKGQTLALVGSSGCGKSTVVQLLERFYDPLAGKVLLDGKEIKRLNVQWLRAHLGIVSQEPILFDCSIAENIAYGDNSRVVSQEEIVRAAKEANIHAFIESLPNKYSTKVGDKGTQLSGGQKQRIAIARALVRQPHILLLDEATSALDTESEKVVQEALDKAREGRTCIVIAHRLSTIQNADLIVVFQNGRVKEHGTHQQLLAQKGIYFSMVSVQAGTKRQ

Row | Compound | efflux ratio at 120 min, 1 μM (MDR1) | Kpuu (unbound brain-to-plasma partition coefficient) [1] | IC50 (IRAK4) | solubility kinetic at 24 h [2]
1 | CC[C@@H](C)Oc1nc2nc(C34COC(C)(C3)C4)cn2cc1C(=O)Nc1cccn(C2CC2)c1=O (single isomer, unassigned) [Example 63] | 5.5 | 0.48 | 0.8 nM | 67.1 µg/mL (≈ 145 µM)
2 | CC(C)Oc1nc2nc(C34COC(C)(C3)C4)cn2cc1C(=O)Nc1cccn([C@H]2CC2(C)C)c1=O (single isomer, unassigned) [Example 79] | 2.9 | 0.89 | 0.7 nM | 45.7 µg/mL (≈ 95.7 µM)
3 | CC(C)Oc1cc2nc([C@@]34CC[C@@](C)(C3)OC4)cn2cc1C(=O)Nc1cccn(C2CC2)c1=O (single isomer, unassigned) [Example 4] | 7.1 | 0.26 | 0.2 nM | 57.4 µg/mL (≈ 124 µM)
4 | CC(C)Oc1cc2nc(C34CC(C#N)(C3)C4)cn2cc1C(=O)Nc1cccn(C2CC2)c1=O [Example 80, 2-(3-cyanobicyclo[1.1.1]pentan-1-yl)-N-(1-cyclopropyl-2-oxo-1,2-dihydropyridin-3-yl)-7-isopropoxyimidazo[1,2-a]pyridine-6-carboxamide] | 4.9 | 0.9 | 0.3 nM | 9.5 µg/mL (≈ 21.4 µM)
5 | CC(C)Oc1nc2nc(C34CCC(C)(CC3)OC4)cn2cc1C(=O)Nc1cccn(C2CC2)c1=O [Example 77, N-(1-cyclopropyl-2-oxo-1,2-dihydropyridin-3-yl)-7-isopropoxy-2-(1-methyl-2-oxabicyclo[2.2.2]octan-4-yl)imidazo[1,2-a]pyrimidine-6-carboxamide] | 2.7 | 0.61 | 0.3 nM | 7.2 µg/mL (≈ 15.1 µM)
6 | CC12CC(c3cn4cc(C(=O)Nc5cccn(C6CC6)c5=O)c(OC5CCC5)cc4n3)(CO1)C2 [Example 27, 7-cyclobutoxy-N-(1-cyclopropyl-2-oxo-1,2-dihydropyridin-3-yl)-2-(1-methyl-2-oxabicyclo[2.1.1]hexan-4-yl)imidazo[1,2-a]pyridine-6-carboxamide] | 4 | 0.42 | 0.6 nM | 65.7 µg/mL (≈ 143 µM)
7 | CC(C)Oc1cc2nc(C34CCC(C)(CC3)OC4)cn2cc1C(=O)Nc1cccn(C2CC2)c1=O [Example 3, N-(1-cyclopropyl-2-oxo-1,2-dihydropyridin-3-yl)-7-isopropoxy-2-(1-methyl-2-oxabicyclo[2.2.2]octan-4-yl)imidazo[1,2-a]pyridine-6-carboxamide] | 2.9 | 0.25 | 0.2 nM | 36 µg/mL (≈ 75.5 µM)
8 | C[C@@]12CC[C@@](c3cn4cc(C(=O)Nc5cccn(C6CC6)c5=O)c(OC5CCC5)cc4n3)(CO1)C2 (single isomer, unassigned) [Example 25] | 3.2 | 0.36 | 0.3 nM | 66.7 µg/mL (≈ 141 µM)
9 | CC(C)Oc1nc2nc(C34CCC(C)(CC3)OC4)cn2cc1C(=O)Nc1ccn(C)n1 [Comparator 6C, 7-isopropoxy-N-(1-methyl-1H-pyrazol-3-yl)-2-(1-methyl-2-oxabicyclo[2.2.2]octan-4-yl)imidazo[1,2-a]pyrimidine-6-carboxamide, reference compound] | 1.8 | 0.2 | 0.9 nM | 48.5 µg/mL (≈ 114 µM)
10 | Cc1cnc2c(NC(=O)c3cn4cc(C56COC(C)(C5)C6)nc4cc3OC(C)C)cnn2c1 [Comparator 1B, 7-isopropoxy-2-(1-methyl-2-oxabicyclo[2.1.1]hexan-4-yl)-N-(6-methylpyrazolo[1,5-a]pyrimidin-3-yl)imidazo[1,2-a]pyridine-6-carboxamide, reference compound] | 4.3 | 0.3 | 0.2 nM | 0.3 µg/mL (≈ 0.672 µM)
11 | CC(C)Oc1cc2nc(C34COC(C)(C3)C4)cn2cc1C(=O)Nc1cccn(C)c1=O [Comparator 1D, 7-isopropoxy-N-(1-methyl-2-oxo-1,2-dihydropyridin-3-yl)-2-(1-methyl-2-oxabicyclo[2.1.1]hexan-4-yl)imidazo[1,2-a]pyridine-6-carboxamide, reference compound] | 8 | 0.9 | 0.6 nM | 63.2 µg/mL (≈ 150 µM)
12 | CC(C)Oc1cc2nc(C34COC(CF)(C3)C4)cn2cc1C(=O)Nc1cccn(C2CC2)c1=O [Example 9, N-(1-cyclopropyl-2-oxo-1,2-dihydropyridin-3-yl)-2-(1-(fluoromethyl)-2-oxabicyclo[2.1.1]hexan-4-yl)-7-isopropoxyimidazo[1,2-a]pyridine-6-carboxamide] | 9.7 | 0.18 | 0.4 nM | 70.6 µg/mL (≈ 151 µM)
13 | CC(C)Oc1cc2nc([C@@]34CC[C@@](CF)(C3)OC4)cn2cc1C(=O)Nc1cccn(C2CC2)c1=O (single isomer, unassigned) [Example 7] | 5 | 0.66 | 0.3 nM | 79.2 µg/mL (≈ 165 µM)
14 | CC[C@H](C)Oc1cc2nc(C34COC(C)(C3)C4)cn2cc1C(=O)Nc1cccn(C2CC2)c1=O [Example 19, (S)-7-(sec-butoxy)-N-(1-cyclopropyl-2-oxo-1,2-dihydropyridin-3-yl)-2-(1-methyl-2-oxabicyclo[2.1.1]hexan-4-yl)imidazo[1,2-a]pyridine-6-carboxamide] | 6 | 0.49 | 0.5 nM | 47 µg/mL (≈ 102 µM)
15 | CC(C)Oc1c(C(=O)Nc2cccn(C3CC3)c2=O)cn2cc(C34COC(C)(C3)C4)nc2c1F [Example 61, N-(1-cyclopropyl-2-oxo-1,2-dihydropyridin-3-yl)-8-fluoro-7-isopropoxy-2-(1-methyl-2-oxabicyclo[2.1.1]hexan-4-yl)imidazo[1,2-a]pyridine-6-carboxamide] | 2.8 | 0.45 | 2 nM | 65.8 µg/mL (≈ 141 µM)
16 | CC[C@H](C)Oc1nc2nc([C@@]34CC[C@@](C)(C3)OC4)cn2cc1C(=O)Nc1cccn(C2CC2)c1=O [Example 49, 7-((S)-sec-butoxy)-N-(1-cyclopropyl-2-oxo-1,2-dihydropyridin-3-yl)-2-((1S,4R)-1-methyl-2-oxabicyclo[2.2.1]heptan-4-yl)imidazo[1,2-a]pyrimidine-6-carboxamide] | 3.6 | 0.66 | 0.4 nM | 56.1 µg/mL (≈ 117 µM)
17 | CC(C)Oc1cc2nc([C@]34CC[C@](CF)(C3)OC4)cn2cc1C(=O)Nc1cccn(C2CC2)c1=O (single isomer, unassigned) [Example 8] | 5.4 | 0.49 | 0.3 nM | 75.9 µg/mL (≈ 158 µM)
18 | CC(C)Oc1cc2nc([C@@]34CC[C@@](C)(C3)OC4)cn2cc1C(=O)Nc1ccn(C)n1 (single isomer, unassigned) [Comparator 3C, reference compound] | 6.3 | 0.3 | 2.3 nM | 28.5 µg/mL (≈ 69.6 µM)
19 | CC(C)Oc1c(C(=O)Nc2cccn(C3CC3)c2=O)cn2cc([C@@]34CC[C@@](C)(C3)OC4)nc2c1F (single isomer, unassigned) [Example 67] | 2.8 | 0.96 | 1.3 nM | 48.8 µg/mL (≈ 102 µM)
20 | CC(C)Oc1nc2nc([C@@]34CC[C@@](C)(C3)OC4)cn2cc1C(=O)Nc1cccn([C@H]2C[C@@H]2C)c1=O (single isomer, unassigned) [Example 149] | 2.8 | 1.34 | 0.4 nM | 34.5 µg/mL (≈ 72.2 µM)
21 | CC(C)Oc1cc2nc(C34COC(C)(C3)C4)cn2cc1C(=O)Nc1cccn(C2CC2)c1=O [Example 6, N-(1-cyclopropyl-2-oxo-1,2-dihydropyridin-3-yl)-7-isopropoxy-2-(1-methyl-2-oxabicyclo[2.1.1]hexan-4-yl)imidazo[1,2-a]pyridine-6-carboxamide] | 7.9 | 0.27 | 0.1 nM | 58 µg/mL (≈ 129 µM)
22 | CC(C)Oc1cc2nc([C@]34CC[C@](C)(C3)OC4)cn2cc1C(=O)Nc1cccn([C@H]2C[C@H]2C)c1=O [Example 180, 7-isopropoxy-2-((1R,4S)-1-methyl-2-oxabicyclo[2.2.1]heptan-4-yl)-N-(1-((1S,2R)-2-methylcyclopropyl)-2-oxo-1,2-dihydropyridin-3-yl)imidazo[1,2-a]pyridine-6-carboxamide trifluoroacetate] | 2.6 | 1.58 | 0.2 nM | 23 µg/mL
23 | CC(C)Oc1nc2nc([C@@]34CC[C@@](C)(C3)OC4)cn2cc1C(=O)Nc1cccn(C)c1=O [Comparator 4D, 7-isopropoxy-N-(1-methyl-2-oxo-1,2-dihydropyridin-3-yl)-2-((1S,4R)-1-methyl-2-oxabicyclo[2.2.1]heptan-4-yl)imidazo[1,2-a]pyrimidine-6-carboxamide, reference compound] | 5.6 | 0.2 | 0.5 nM | 58.8 µg/mL (≈ 134 µM)
24 | CC[C@H](C)Oc1cc2nc(C34COC(CF)(C3)C4)cn2cc1C(=O)Nc1cccn(C2CC2)c1=O (single isomer, unassigned) [Example 15] | 8.1 | 0.41 | 0.4 nM | 78.6 µg/mL (≈ 164 µM)
